Assay results reported in patent US20100298402A1, “STILBENE DERIVATIVES AS PSTAT3/IL-6 INHIBITORS” (ORCHID RESEARCH LABORATORIES LIMITED, priority 2007, published 2010).

Tests used:
Format in all cases: cell-based
[1] = system: pSTAT3 in HEPG2 (liver cancer) cells induced by IL-6; assay: Inhibition of pSTAT3 (IL-6 induced phosphorylation of STAT3, Phospho-STAT3 (Tyr705) Sandwich ELISA); settings: Homo sapiens, 4 hours compound, then IL-6 (10 ng/mL) 30 minutes
Protocol: The experimental drugs were tested for their effect on phosphorylation of STAT3 in HEPG2 (liver cancer) cells induced by IL-6. Test compounds were dissolved in DMSO at 20 mM and diluted in a growth medium at 2× strength. Final DMSO concentration was less than 0.5%. 100 μL of cell suspension (10×10^4 cells/mL) was added to the wells of 96 well plates and allowed to adhere for 24 hours in a CO2 incubator at 37° C. Following overnight incubation, the culture medium was replaced with 100 μL of fresh growth medium and 100 μL of test compound (s), standard (Curcumin) and growth medium (untreated) wells. The plates were incubated in CO2 incubator at 37° C. for 4 hours. After compound treatment, IL-6 (10 ng/mL) was added to the wells and incubated for 30 minutes to induce pSTAT3.
At the end of the 30 minutes incubation, cells were rinsed with ice-cold PBS and lysed with 1× Cell lysis buffer containing 1 mM PMSF (provided in the kit) on ice for 5 minutes. The cells were scraped off and transferred to an appropriate tube, sonicated on ice and centrifuged for 10 minutes at 4° C. The supernatant (cell lysate) was collected and stored at −80° C. and the levels of pSTAT3 were measured in the cell lysate by Path Scan Phospho-STAT3 (Tyr705) Sandwich ELISA kit (Cell Signaling, Cat No. 7300) by following the kit instructions.

[2] = system: HCT 116 (colon), NCIH460 (lung) and U251 (glioma) cell lines; assay: Anti-cancer screen (MTT growth inhibition, 48 hours); settings: Homo sapiens; HCT 116, NCIH460 and U251 cell lines; MTT after 48 hours of incubation;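 further: mean GI50 across the three cell lines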
Protocol: The experimental drugs were screened for anti-cancer activity in three cell lines using five concentrations for each compound. The cell lines—HCT 116 (colon), NCIH460 (lung) and U251 (glioma) were maintained in DMEM containing 10% fetal bovine serum. 96-well microtiter plates are inoculated with cells in 100 μL of cell suspension (5×10^4 cells/mL) for 24 hours at 37° C., 5% CO2, 95% air and 100% relative humidity. A separate plate with these cell lines is also inoculated to determine cell viability before the addition of the compounds (T0)
Following 24-hour incubation, test compounds were added to the 96 well plates. Each plate contains one of the above cell lines and the following samples in triplicate: five different dilutions (0.01, 0.1, 1, 10 and 100 μM) of four test compounds, appropriate dilutions of a cytotoxic standard and growth medium (untreated) wells. Test compounds were dissolved in DMSO to prepare 20 mM stock solutions on the day of drug addition and serial dilutions were carried out in complete growth medium at 2× strength, such that 100 μL added to the wells gave final concentrations (0.01, 0.1, 1, 10 and 100 μM) in the well. SAHA was used as the standard drug in these experiments.
For T0 measurement, 24 hours after seeding the cells, 20 μL of 3-(4,5-dimethyl-2-thiazolyl)-2,5-diphenyl-2H-tetrazolium (MTT) solution per well was added to the ‘T0’ plate and incubated for 3 hours at 37° C. in a CO2 incubator. The plate containing cells and test compounds was treated similarly after 48 hours of incubation. After 3 hours of MTT addition, well contents were aspirated carefully followed by addition of 150 μL DMSO per well. Plates were agitated to ensure dissolution of the formazan crystals in DMSO and absorbance was read at 570 nm (A570).
Percent growth (PG) is calculated relative to the control and zero measurement wells (T0) as follows:
PG values are plotted against drug concentration to derive the following: GI50 is the concentration required to decrease PG by 50% vs control; TGI is the concentration required to decrease PG by 100% vs control and LC50 is the concentration required to decrease PG by 50% vs T0. (Mosmann T. Rapid colorimetric assay for cellular growth and survival: application to proliferation and cytotoxicity assays. (J. Immunol. Methods. 1983, 65 (1-2), 55-63; Anne Monks et al); feasibility of high-flux anticancer drug screen using a diverse panel of cultured human tumor cell lines”. (JNCI, Vol. 83, No. 11, 1991). Results for growth inhibition of synthesized compounds are given in Table-1.

[3] = system: IL-6 in supernatant of NCIH 460 cells; assay: Measuring IL-6 in culture supernatants (ELISA); settings: Homo sapiens, NCI-H460, 5 hours incubation

| Compound | inhibition at 10 µM [1] [%] | GI50 [2] [µM] | inhibition at 10 µM [3] [%] |
| --- | --- | --- | --- |
| COC(=O)/C(=C/c1ccc(F)c(C)c1)c1ccc(OCC(O)CNCc2ccc(OC)cc2OC)cc1 (centres unmarked) [Example 1, 2-{4-[3-(2,4-dimethoxybenzylamino)-2-hydroxypropoxy]phenyl}-3-(4-fluoro-3-methylphenyl)acrylic acid methyl ester] | 22.2 | – | – |
| COC(=O)/C(=C/c1ccc(OCC(O)CNCc2ccc(OC)cc2OC)cc1)c1ccc(F)cc1 (centres unmarked) [Example 35, 3-{4-[3-(2,4-Dimethoxybenzylamino)-2-hydroxypropoxy]phenyl}-2-(4-fluorophenyl)acrylic acid methyl ester] | 32.7 | 5.1 | 72.7 |
| COC(=O)/C(=C/c1ccc(OCC(O)CNCc2ccc(OC)cc2OC)cc1)c1ccc(C)cc1 (centres unmarked) [Example 37, 3-{4-[3-(2,4-Dimethoxybenzylamino)-2-hydroxypropoxy]phenyl}-2-(4-methylphenyl)acrylic acid methyl ester] | 42 | 6.2 | 68.1 |
| COC(=O)/C(=C/c1ccc(OCC(O)CNCCOc2ccccc2OC)cc1)c1ccc(C)cc1 (centres unmarked) [Example 38, 3-{4-[3-(2-Methoxyphenoxyethylamino)-2-hydroxypropoxy]phenyl}-2-(4-methylphenyl)acrylic acid methyl ester] | 77.2 | 9 | 69.1 |
| COC(=O)/C(=C/c1ccc(OCC(O)CNCc2ccc(OC)cc2OC)cc1)c1cccs1 (centres unmarked) [Example 40, 3-{4-[3-(2,4-Dimethoxybenzylamino)-2-hydroxypropoxy]phenyl}-2-(thiophen-2-yl)acrylic acid methyl ester] | 71 | 9.7 | 70.5 |
| COC(=O)/C(=C/c1ccccc1OCC(O)CNCc1ccccc1)c1ccc(OC)cc1 (centres unmarked) [Example 43, 3-{2-[3-(Benzylamino)-2-hydroxypropoxy]phenyl}-2-(4-methoxyphenyl)acrylic acid methyl ester] | 46.4 | 0.86 | 9.6 |
| COC(=O)/C(=C/c1ccc(OCC(O)CNCc2ccc(OC)cc2OC)cc1)c1cccc(Cl)c1 (centres unmarked) [Example 47, 3-{4-[3-(2,4-Dimethoxybenzylamino)-2-hydroxypropoxy]phenyl}-2-(3-chlorophenyl)acrylic acid methyl ester] | – | 1.3 | 59 |
| COC(=O)/C(=C/c1ccc(OCC(O)CNCCOc2ccccc2OC)cc1)c1cccc(Cl)c1 (centres unmarked) [Example 48, 3-{4-[3-(2-Methoxyphenoxyethylamino)-2-hydroxypropoxy]phenyl}-2-(3-chlorophenyl)acrylic acid methyl ester] | – | 1.6 | 9 |
| COC(=O)/C(=C/c1ccc(OCC(O)CNCc2ccccc2)cc1)c1cccc(Cl)c1 (centres unmarked) [Example 49, 3-{4-[3-(Benzylamino)-2-hydroxypropoxy]phenyl}-2-(3-chlorophenyl)acrylic acid methyl ester] | 58.4 | 2.1 | 56 |
| COC(=O)/C(=C/c1ccc(OCC(O)CNCCOc2ccccc2OC)cc1)c1cccc(F)c1 (centres unmarked) [Example 51, 3-{4-[3-(2-Methoxyphenoxyethylamino)-2-hydroxypropoxy]phenyl}-2-(3-fluorophenyl)acrylic acid methyl ester] | 49.9 | – | – |
| COC(=O)/C(=C/c1ccc(OCC(O)CNCc2ccc(OC)cc2OC)cc1)c1ccccc1F (centres unmarked) [Example 53, 3-{4-[3-(2,4-Dimethoxybenzylamino)-2-hydroxypropoxy]phenyl}-2-(2-fluorophenyl)acrylic acid methyl ester] | 61.4 | – | – |
| COC(=O)/C(=C/c1ccc(C)s1)c1ccc(OCC(O)CNCc2ccc(OC)cc2OC)cc1 (centres unmarked) [Example 56, 2-{4-[3-(2,4-Dimethoxybenzylamino)-2-hydroxypropoxy]phenyl}-3-(5-methylthiophen-2-yl)acrylic acid methyl ester] | 56.2 | – | – |
| COC(=O)/C(=C/c1ccc(C)s1)c1ccc(OCC(O)CNCCOc2ccccc2OC)cc1 (centres unmarked) [Example 57, 2-{4-[3-(2-Methoxyphenoxyethylamino)-2-hydroxypropoxy]phenyl}-3-(5-methylthiophen-2-yl)acrylic acid methyl ester] | 66.5 | – | – |
| COc1ccc(CNCC(O)COc2ccc(/C(=C\c3ccc(F)c(F)c3)C(N)=O)cc2)c(OC)c1 (centres unmarked) [Example 64, 2-{4-[3-(2,4-Dimethoxybenzylamino)-2-hydroxypropoxy]phenyl}-3-(3,4-difluorophenyl)acrylamide] | 32.2 | – | – |
| COc1ccccc1OCCNCC(O)COc1ccc(/C(=C\c2ccc(F)c(F)c2)C(N)=O)cc1 (centres unmarked) [Example 65, 2-{4-[3-(2-Methoxyphenoxyethylamino)-2-hydroxypropoxy]phenyl}-3-(3,4-difluorophenyl)acrylamide] | 0 | – | – |
